According to patent publication US20250189537A1, “MULTI-FLUORESCENCE MICROFLUIDIC PLATFORM FOR EVALUATING RISKS OF SHEAR-DRIVEN ARTERIAL THROMBOSIS AND FAST ANTITHROMBOTIC DRUG SCREENING” (Board of Regents, The University of Texas System, priority 2023, published 2025):
Where a name gives a salt, the structure may show the parent alone.

How the values were obtained:
[1] = system: biomechanical platelet aggregation; test: Microfluidic stenosis assay (thrombus size, single fluorescence imaging); type: cell-based, human; conditions: for inhibition to the biomechanical thrombogenesis: separately and combined at twice or 20 times of human plasmatic concentrations; for thrombus formation: replacing heparin for anticoagulation
Method: Microfluidic devices with single-hump stenosis microchannels can be coated with VWF monomer solution. Heparin added whole blood is incubated with DiOC6 (3), or with a set of predetermined sensors. As used herein, a sensor is a compound or protein (e.g., antibody) that specifically binds a selected molecule, peptide, or protein present in a thrombus, the sensor can optionally include a detectable tag. A detectable tag can include but is not limited to a fluorescent tag. In certain aspects a first sensor set (Sensor Set 1) can include one or more of SZ22-FITC, Fg-Alexa Fluor® 405, 2.2.9-Alexa Fluor® 555 and AK4-Alexa Fluor® 647. In certain aspects a second sensor set (Sensor Set 2) can include SZ22-FITC, Annexin V-Pacific Blue, MBC 370.2-Alexa Fluor® 555 and PAC-1-Alexa Fluor® 647. A thrombogenic sample, e.g., blood, can be introduced via a reservoir at a microchannel inlet and perfused through the microchannel at a predetermined flow rate. In certain aspects the sample is moved through the microchannel using a pump withdraw mode via a syringe or similar apparatus connected to a microchannel outlet. The microchannel at the site of stenosis can be recorded in real time with multi-fluorescence imaging using appropriate equipment. In certain aspects the multi-fluorescence imaging is performed with a LED5 fluorescence light source and a multi-pass filter (excitation-emission: 391/32-435/30, 479/33-519/25, 554/24-594/32 and 638/31-695/58 nm). Autofluorescence of platelets can be detected in the 391/32-435/30 nm channel (Lohmann and Lohmann, Biochemical and biophysical research communications 152, 1410-1415, 1988), the signal intensity of which can be subtracted when calculating signals from other sensors.
Thrombus profiling assay: development and validation. Each microfluidic chip is composed of 10 rectangular (width×height: 200 μm×50 μm) channels with respective inlets and outlets for tubing connection (FIG. 1A, 1B). A pump drives a syringe to perfuse heparinized blood (0.5 mL) through the channel pre-coated with VWF. An 80% stenosis site stimulates biomechanical thrombogenesis (FIG. 1C). A perfusion rate of 18 μL min^−1 was selected, which creates a wall shear stress (WSS) of 857 dyn cm^−2 at the stenosis site according to fluid dynamics simulation (FIG. 1D). The same stenosis site WSS is achieved by an inlet wall shear rate of 1485 s-1 in a circular vessel with the same cross-sectional area, mimicking human arterioles (Yakusheva et al. Blood advances 6, 4834-46), human arteries during systole, and mouse arteries (Panteleev et al., Journal of thrombosis and haemostasis JTH 19, 588-95). The calculated Reynolds numbers in channels of different shapes are also within the same scale. […]

[2] = system: ADP or collagen-induced platelet aggregation; conditions: at much lower concentrations; cited from earlier work
[3] = phase III trials; cited from earlier work

SMILES	inhibition to the biomechanical thrombogenesis [1]	inhibition of ADP or collagen-induced platelet aggregation [2]	thrombus formation [1]	patient mortality vs placebo [3]
COC(=O)[C@H](c1ccccc1Cl)N1CCc2sccc2C1 [clopidogrel]	negligible inhibition	significantly inhibit		
O=C(O)CC(O)(CC(=O)O)C(=O)O [citrate, sodium citrate]			attenuated	
CCOC(=O)CCNC(=O)N[C@H]1CCN(c2ccc(C(=N)N)cc2)C1=O [orbofiban]				significantly increased
O=C(O)CN(CCN(CC(=O)O)CC(=O)O)CC(=O)O [EDTA, ethylenediaminetetraacetic acid]			attenuated	
CC(=O)Oc1ccccc1C(=O)O [aspirin]	negligible inhibition	significantly inhibit		
